For 14 compounds, IC50 results are on record in patent publication US12172983B2, “EGFR inhibitors” (Blueprint Medicines Corporation, priority 2019, dated 2024).

Molecules are shown by their SMILES. Read-outs that look alike come from different tables or passages of the source.

Test [1] deals with T1, EGFR (L858R T790M C797S) (Homo sapiens, UniProt P00533, C797S/L858R/T790M).
T1 construct: purchased SignalChem E10-122VG
The experiment in a line: Biochemical EGFR inhibition assay (Caliper mobility shift), EGFR LRTMCS mutant. To be noted: inhibitory activity against EGFR LRTMCS mutant; apparent IC50; read-out: Ext Enz LRTMCS. The procedure, abridged:
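Caliper mobility shift read-out: product and substrate peptides separated by electrophoresis and quantified. Reactions at 25° C. taken to 10–20% peptide phosphorylation, quenched with 35 mM EDTA. Apparent IC50 from percent activity vs log [compound].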

Test [2] concerns phosphorylation of EGFR (Tyr1068) in NCI-H1975 cell line that harbors the EGFR L858R T790M mutations. The experiment in a line: NCI-H1975 pEGFR AlphaLISA assay. The test is classed as cell-based. To be noted: 4-5 hours incubation, read-out: Ext pEGFR H1975. The procedure, abridged: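 Phospho-EGFR Tyr1068 AlphaLISA readout: lysates taken from compound-treated H1975 cells (L858R T790M EGFR) after a 4-5 h exposure at 37 °C. Cells had adhered overnight beforehand. IC50 derived by plotting % pEGFR inhibition against log compound concentration.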
On the technique in general: Bead proximity is the source of the signal in Alpha formats.

Where [3] appears, read: inhibition of phosphorylation of mutant EGFR in NCI-H1975 cells.
Where [4] appears, read: Homo sapiens, NCI-H1975, inhibition of phosphorylation of mutant EGFR in NCI-H1975 cells.

T1 sequence (P00533 25-1210 T790M/C797S/L858R): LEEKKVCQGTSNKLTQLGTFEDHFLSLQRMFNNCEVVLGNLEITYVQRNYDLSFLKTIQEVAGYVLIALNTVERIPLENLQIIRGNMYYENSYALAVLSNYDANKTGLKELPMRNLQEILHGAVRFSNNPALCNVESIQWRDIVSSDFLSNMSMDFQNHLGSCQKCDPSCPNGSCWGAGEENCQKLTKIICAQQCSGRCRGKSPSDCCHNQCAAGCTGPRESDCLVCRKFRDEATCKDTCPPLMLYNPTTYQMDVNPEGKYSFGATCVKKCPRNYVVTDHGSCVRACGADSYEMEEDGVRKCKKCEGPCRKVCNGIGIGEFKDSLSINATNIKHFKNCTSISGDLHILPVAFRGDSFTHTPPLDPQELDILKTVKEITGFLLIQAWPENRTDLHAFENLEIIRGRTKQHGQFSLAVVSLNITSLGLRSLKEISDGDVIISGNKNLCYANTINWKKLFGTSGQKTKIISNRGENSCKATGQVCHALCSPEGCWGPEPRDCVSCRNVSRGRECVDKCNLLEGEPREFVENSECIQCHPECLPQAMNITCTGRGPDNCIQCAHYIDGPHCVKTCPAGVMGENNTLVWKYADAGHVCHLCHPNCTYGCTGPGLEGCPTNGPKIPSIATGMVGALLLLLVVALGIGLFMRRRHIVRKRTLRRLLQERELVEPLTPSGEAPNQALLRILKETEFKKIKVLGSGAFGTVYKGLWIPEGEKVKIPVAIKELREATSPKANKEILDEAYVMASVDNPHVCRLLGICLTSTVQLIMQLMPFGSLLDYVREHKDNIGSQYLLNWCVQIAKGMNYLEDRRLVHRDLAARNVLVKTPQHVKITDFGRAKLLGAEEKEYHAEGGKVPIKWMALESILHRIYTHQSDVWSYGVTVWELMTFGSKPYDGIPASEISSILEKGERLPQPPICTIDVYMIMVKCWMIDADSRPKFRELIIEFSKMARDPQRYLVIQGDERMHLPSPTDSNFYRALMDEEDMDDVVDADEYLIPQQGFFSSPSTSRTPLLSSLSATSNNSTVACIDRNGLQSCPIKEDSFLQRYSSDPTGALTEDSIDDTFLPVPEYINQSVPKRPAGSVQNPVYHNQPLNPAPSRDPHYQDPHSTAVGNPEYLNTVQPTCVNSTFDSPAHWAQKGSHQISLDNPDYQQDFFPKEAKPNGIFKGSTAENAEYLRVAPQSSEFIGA

Turning to `CO[C@H]1CCN(c2nccc(Nc3cc4c(C(C)C)ccc(N5CC(CS(C)(=O)=O)C5)c4cn3)n2)C[C@@H]1O` (single isomer, unassigned) [Compound 53, (3S,4S)-1-[4-({8-[3-(methanesulfonylmethyl)azetidin-1-yl]-5-(propan-2-yl)isoquinolin-3-yl}amino)pyrimidin-2-yl]-4-methoxypiperidin-3-ol or (3R,4R)-1-[4-({8-[3-(methanesulfonylmethyl)azetidin-1-yl]-5-(propan-2-yl)isoquinolin-3-yl}amino)pyrimidin-2-yl]-4-methoxypiperidin-3-ol], the IC50 was ≤ 15 nM in test [1] and ≤ 10 nM in test [2] (setting [3]).

Turning to `CCS(=O)(=O)CC1CN(c2cccc3cc(Nc4ccnc(N5C[C@H](F)[C@H](O)C(C)(C)C5)n4)ncc23)C1` (single isomer, unassigned) [Compound 27, (4S,5R)-1-{4-[(8-{3-[(ethanesulfonyl)methyl]azetidin-1-yl}isoquinolin-3-yl)amino]pyrimidin-2-yl}-5-fluoro-3,3-dimethylpiperidin-4-ol or (4R,5S)-1-{4-[(8-{3-[(ethanesulfonyl)methyl]azetidin-1-yl}isoquinolin-3-yl)amino]pyrimidin-2-yl}-5-fluoro-3,3-dimethylpiperidin-4-ol], the IC50 is ≤ 15 nM in test [1] and 10.1 to 20 nM in test [2] (setting [4]).

Take `CO[C@@H]1CCN(c2nccc(Nc3cc4c(C(C)C)ccc(N5C[C@H](CS(C)(=O)=O)[C@H]5C)c4cn3)n2)C[C@H]1C#N` (single isomer, unassigned) [Compound 166, (3S,4R)-1-[4-({8-[(2R,3S)-3-(methanesulfonylmethyl)-2-methylazetidin-1-yl]-5-(propan-2-yl)isoquinolin-3-yl}amino)pyrimidin-2-yl]-4-methoxypiperidine-3-carbonitrile or (3R,4S)-1-[4-({8-[(2R,3S)-3-(methanesulfonylmethyl)-2-methylazetidin-1-yl]-5-(propan-2-yl)isoquinolin-3-yl}amino)pyrimidin-2-yl]-4-methoxypiperidine-3-carbonitrile]: the IC50 lay within 30.1 to 100 nM in test [1] and 30.1 to 50 nM in test [2] (setting [4]).

As to `Cc1cc(C(C)C)c2cc(Nc3ccnc(N4CC[C@@H](O)[C@@](C)(F)C4)n3)ncc2c1N1CC(CS(C)(=O)=O)C1` (single isomer, unassigned) [Compound 116], the IC50 is ≤ 15 nM in test [1] and 10.1 to 20 nM in test [2] (setting [4]).

As for `CC(C)c1ccc(N2C[C@H](CS(C)(=O)=O)[C@H]2C)c2cnc(Nc3ccnc(N4CC[C@@H](OCCO)[C@@](C)(F)C4)n3)cc12` (single isomer, unassigned) [Compound 242], the IC50 in test [1] was ≤ 15 nM; in test [2] (setting [4]), ≤ 10 nM.

Turning to `CCS(=O)(=O)CC1CN(c2ncc(C(C)C)c3cc(Nc4ccnc(N5CCN[C@@H](C(F)F)C5)n4)ncc23)C1` (single isomer, unassigned) [Compound 160, N-{2-[(3R)-3-(difluoromethyl)piperazin-1-yl]pyrimidin-4-yl}-8-{3-[(ethanesulfonyl)methyl]azetidin-1-yl}-5-(propan-2-yl)-2,7-naphthyridin-3-amine or N-{2-[(3S)-3-(difluoromethyl)piperazin-1-yl]pyrimidin-4-yl}-8-{3-[(ethanesulfonyl)methyl]azetidin-1-yl}-5-(propan-2-yl)-2,7-naphthyridin-3-amine], the IC50 in test [1] is 15.1 to 20 nM; in test [2] (setting [4]), 30.1 to 50 nM.

In the case of `CO[C@@H]1CCN(c2nccc(Nc3cc4c(C(C)C)ccc(N5CC(CS(C)(=O)=O)C5)c4cn3)n2)CC1(F)F` (single isomer, unassigned) [Compound 159], the IC50 in test [1] fell in the range of 15.1 to 20 nM; in test [2] (setting [4]), 20.1 to 30 nM.

`CC(CF)c1cnc(N2CC(CS(C)(=O)=O)C2)c2cnc(Nc3ccnc(N4CC[C@@H](O)[C@@](C)(F)C4)n3)cc12` (single isomer, unassigned) [Compound 163]: the IC50 in test [1] is ≤ 15 nM; in test [2] (setting [4]), 30.1 to 50 nM.

Turning to `CCS(=N)(=O)CC1CN(c2ccc(C(C)C)c3cc(Nc4ccnc(N5CCC(OC)C(F)C5)n4)ncc23)C1` (single isomer, unassigned) [Compound 275, (S)-ethyl({1-[3-({2-[(3R,4S)-3-fluoro-4-methoxypiperidin-1-yl]pyrimidin-4-yl}amino)-5-(propan-2-yl)isoquinolin-8-yl]azetidin-3-yl}methyl)imino-λ^6-sulfanone or (R)-ethyl({1-[3-({2-[(3R,4S)-3-fluoro-4-methoxypiperidin-1-yl]pyrimidin-4-yl}amino)-5-(propan-2-yl)isoquinolin-8-yl]azetidin-3-yl}methyl)imino-λ^6-sulfanone], the values for the IC50 in test [1] and in test [2] (setting [3]) were 15.1 to 20 nM and 30.1 to 50 nM, respectively.

Regarding `CC(C)c1ccc(N2C[C@H](CS(C)(=O)=O)[C@H]2C)c2cnc(Nc3ccnc(N4CC[C@H](O)C[C@@H]4C)n3)cc12` (single isomer, unassigned) [Compound 48, (2R,4R)-1-[4-({8-[(2R,3S)-3-(methanesulfonylmethyl)-2-methylazetidin-1-yl]-5-(propan-2-yl)isoquinolin-3-yl}amino)pyrimidin-2-yl]-2-methylpiperidin-4-ol or (2S,4S)-1-[4-({8-[(2R,3S)-3-(methanesulfonylmethyl)-2-methylazetidin-1-yl]-5-(propan-2-yl)isoquinolin-3-yl}amino)pyrimidin-2-yl]-2-methylpiperidin-4-ol], the IC50 in test [1] was ≤ 15 nM; in test [2] (setting [3]), ≤ 10 nM.

`CC(C)c1ncc(N2C[C@H](CS(C)(=O)=O)[C@H]2C)c2cnc(Nc3ccnc(N4CC[C@@H](OCC(C)(C)O)[C@@H](F)C4)n3)cc12` [Compound 258, 1-{[(3S,4R)-3-fluoro-1-[4-({8-[(2R,3S)-3-(methanesulfonylmethyl)-2-methylazetidin-1-yl]-5-(propan-2-yl)-2,6-naphthyridin-3-yl}amino)pyrimidin-2-yl]piperidin-4-yl]oxy}-2-methylpropan-2-ol]: the IC50 in test [1] is ≤ 15 nM; in test [2] (setting [4]) it was ≤ 10 nM.

Regarding `CC(C)c1ccc(N2CC(CS(C)(=O)=O)C2)c2cnc(Nc3ccnc(N4CC[C@@](C)(O)[C@@H](F)C4)n3)cc12` (single isomer, unassigned) [Compound 56], the IC50 was ≤ 15 nM in test [1] and 10.1 to 20 nM in test [2] (setting [4]).

Regarding `CC(C)c1ccc(N2CC(CS(=O)(=O)C3CC3)C2)c2cnc(Nc3ccnc(N4CC[C@@H](O)[C@@](C)(F)C4)n3)cc12` [Compound 170, (3S,4R)-1-{4-[(8-{3-[(cyclopropanesulfonyl)methyl]azetidin-1-yl}-5-(propan-2-yl)isoquinolin-3-yl)amino]pyrimidin-2-yl}-3-fluoro-3-methylpiperidin-4-ol], the IC50 in test [1] was ≤ 15 nM; in test [2] (setting [4]), ≤ 10 nM.

As for `CO[C@]1(C)CN(c2nccc(Nc3cc4c(C(C)C)ccc(N5CC(CS(C)(=O)=O)C5)c4cn3)n2)CC[C@@H]1O` (single isomer, unassigned) [Compound 95, (3S,4R)-1-[4-({8-[3-(methanesulfonylmethyl)azetidin-1-yl]-5-(propan-2-yl)isoquinolin-3-yl}amino)pyrimidin-2-yl]-3-methoxy-3-methylpiperidin-4-ol or (3R,4S)-1-[4-({8-[3-(methanesulfonylmethyl)azetidin-1-yl]-5-(propan-2-yl)isoquinolin-3-yl}amino)pyrimidin-2-yl]-3-methoxy-3-methylpiperidin-4-ol], the IC50 lay within 20.1 to 30 nM in test [1] and 10.1 to 20 nM in test [2] (setting [3]).
